The values below come from PMC11277476, “Synthesis and Biological Evaluation of Novel 2-Aroyl Benzofuran-Based Hydroxamic Acids as Antimicrotubule Agents” (International Journal of Molecular Sciences, 2024).

Some results are limits rather than exact numbers.

Data set [1] concerns HeLa cells. Description: In vitro growth inhibition (resazurin, 72 h), HeLa. It is filed as cell-based. Conditions: Homo sapiens, concentration inhibiting tumor cell proliferation by 50%, mean ± SE.
For data set [2], the system named is MDA-MB-231 cells. Description: In vitro growth inhibition (resazurin, 72 h), MDA-MB-231. It is filed as cell-based. The settings on record: Homo sapiens, mean ± SE.
In data set [3] the test system is A549 cells. Description: In vitro growth inhibition (resazurin, 72 h), A549. Conditions: Homo sapiens, mean ± SE. It is filed as cell-based. Background: Alamar Blue is a resazurin reagent that responds to reducing activity.
For data set [4], the system named is HT-29 cells. Description: In vitro growth inhibition (resazurin, 72 h), HT-29. The class given is cell-based. Conditions: Homo sapiens, mean ± SE.
Data set [5] has as its system MCF-7 cells. Description: In vitro growth inhibition (resazurin, 72 h), MCF-7. The class given is cell-based. The settings on record: Homo sapiens, MCF7, mean ± SE.
The test system of data set [6] is bovine brain tubulin. Description: Inhibition of tubulin polymerization (turbidimetric). It is filed as biochemical. Conditions: tubulin at 10 μM; 20 min incubation at 30 °C; read-out: Tubulin Assembly IC50 ± SD. The protocol:
(§1) Bovine brain tubulin was purified as described previously. To evaluate the effects of the compounds on tubulin assembly in vitro [77], varying concentrations were preincubated with 10 μM tubulin in 0.8 M monosodium glutamate (pH 6.6) at 30 °C, and the reaction mixtures were then cooled to 0 °C. After addition of GTP, the mixtures were transferred to 0 °C cuvettes in Beckman Coulter (Brea, CA, USA) DU-7400/DU-7500 recording spectrophotometers equipped with electronic temperature controllers and were warmed to 30 °C, and the assembly of tubulin was observed turbidimetrically. […] Inhibition of colchicine binding to tubulin was measured as described before, except that the reaction mixtures contained 0.5 μM tubulin and 5 μM each of [^3H]colchicine and test compound. Only one DEAE-cellulose filter was used per sample, and filtration was via gravity.

For data set [7], the system named is tubulin (colchicine site). Description: Inhibition of [3H]colchicine binding to tubulin. Also on record: species or system bovine. The settings on record: tubulin 0.5 µM, [3H]colchicine 5 µM, tested compound 5 µM. The method, then:
as §1

The compound `COc1cc2oc(C(=O)c3ccccc3)c(C)c2cc1C#CC(=O)NO` [Compound 11g, 3-(2-Benzoyl-6-methoxy-3-methyl-benzofuran-5-yl)prop-2yne hydroxamic acid] gave a melting point of 205 to 206 °C. Further, the IC50 in data set [1] is 15.2 ± 0.02 nM. In data set [2], this compound returned an IC50 of 101 ± 0.03 nM. This compound came in with an IC50 in data set [3] of 206 ± 2.92 nM. This compound had an IC50 in data set [4] of 1.58 ± 0.06 nM.

In turn, `COc1cc2oc(C(=O)c3ccccc3OC)c(C)c2cc1C#CC(=O)NO` [Compound 11f, N-Hydroxy-3-[6-methoxy-2-(2-methoxybenzoyl)-3-methyl-1-benzofuran-5-yl]prop-2-ynamide] came in with a melting point of 243 to 245 °C. The half-inhibitory concentration (IC50) in data set [1] turned out to be 60.5 ± 2.26 nM. Moreover, in data set [2], the midpoint of inhibition, the IC50, lay at 345 ± 4.03 nM. Inhibition in data set [3] was half-maximal at 276 ± 6.74 nM (IC50). Also, the IC50 in data set [4] was 4568 ± 21.4 nM. This compound yielded an IC50 in data set [5] of 240 ± 10 nM. Moreover, the IC50 in data set [6] was determined as 5.4 ± 0.1 µM. For the same compound, the “Colchicine Binding % Inhibition ± SD” value in data set [7] came out at 20 ± 2%.

`COc1cc2oc(C(=O)c3ccc(OC)c(OC)c3)c(C)c2cc1C#CC(=O)NO` [Compound 11b, 3-[2-(3,4-Dimethoxybenzoyl)-6-methoxy-3-methyl-1-benzofuran-5-yl]-N-hydroxyprop-2-ynamide] returned a melting point of 276 to 277 °C. In data set [1], this compound showed an IC50 of 69.4 ± 1.45 nM. In data set [2], the half-inhibitory concentration (IC50) came to 377 ± 1.09 nM. Besides, the IC50 in data set [3] was determined as 972 ± 7.47 nM. In data set [4], the IC50 turned out to be 2.16 ± 0.86 nM. In data set [5], this compound showed an IC50 above 10000 nM. Further, the IC50 in data set [6] was determined as 2.7 ± 0.07 µM. Moreover, in data set [7], the “Colchicine Binding % Inhibition ± SD” value came to 30 ± 2%.

A word on the IC50: it is the concentration that gives 50% inhibition. Usually melting point stands for the temperature of the solid-liquid transition.
